Assay results reported in the NIST ThermoML archive (doi:10.1021/je050200w).

Experiment: xn = mol fraction of the nth substance listed
Conditions: 101 kPa, Liquid

CCCCCCCCCCO [decan-1-ol] + CCCCCCCCO
Conditions	mass density [kg/m3]	viscosity [mPa·s]
283.15 K, x2 = 0	836.6	22.06
283.15 K, x2 = 0.0995	836.1	21.14
283.15 K, x2 = 0.1998	835.7	20.23
283.15 K, x2 = 0.3007	835.3	19.39
283.15 K, x2 = 0.4001	834.9	18.46
283.15 K, x2 = 0.4996	834.5	17.59
283.15 K, x2 = 0.5988	834	16.69
283.15 K, x2 = 0.6998	833.6	15.82
283.15 K, x2 = 0.8001	833.1	15.11
283.15 K, x2 = 0.9	832.8	14.2
288.15 K, x2 = 0	833.3	17.99
288.15 K, x2 = 0.0995	832.7	17.18
288.15 K, x2 = 0.1998	832.3	16.53
288.15 K, x2 = 0.3007	831.9	15.64
288.15 K, x2 = 0.4001	831.5	15.11
288.15 K, x2 = 0.4996	831.1	14.23
288.15 K, x2 = 0.5988	830.6	13.71
288.15 K, x2 = 0.6998	830.2	13.02
288.15 K, x2 = 0.8001	829.7	12.25
288.15 K, x2 = 0.9	829.4	11.75
293.15 K, x2 = 0	829.9	14.39
293.15 K, x2 = 0.0995	829.3	13.84
293.15 K, x2 = 0.1998	828.9	13.31
293.15 K, x2 = 0.3007	828.5	12.67
293.15 K, x2 = 0.4001	828.1	12.26
293.15 K, x2 = 0.4996	827.7	11.59
293.15 K, x2 = 0.5988	827.2	11.05
293.15 K, x2 = 0.6998	826.9	10.32
293.15 K, x2 = 0.8001	826.3	9.75
293.15 K, x2 = 0.9	825.9	9.008
298.15 K, x2 = 0	826.5	11.74
298.15 K, x2 = 0.0995	825.9	11.31
298.15 K, x2 = 0.1998	825.5	10.94
298.15 K, x2 = 0.3007	825.1	10.53
298.15 K, x2 = 0.4001	824.7	10.07
298.15 K, x2 = 0.4996	824.3	9.596
298.15 K, x2 = 0.5988	823.8	9.244
298.15 K, x2 = 0.6998	823.4	8.756
298.15 K, x2 = 0.8001	822.8	8.308
298.15 K, x2 = 0.9	822.3	7.812
303.15 K, x2 = 0	823	9.561
303.15 K, x2 = 0.0995	822.5	9.231
303.15 K, x2 = 0.1998	822.1	8.924
303.15 K, x2 = 0.3007	821.7	8.589
303.15 K, x2 = 0.4001	821.3	8.213
303.15 K, x2 = 0.4996	820.8	7.898
303.15 K, x2 = 0.5988	820.4	7.57
303.15 K, x2 = 0.6998	820	7.259
303.15 K, x2 = 0.8001	819.4	6.992
303.15 K, x2 = 0.9	818.9	6.655
308.15 K, x2 = 0	819.6	8
308.15 K, x2 = 0.0995	819.1	7.768
308.15 K, x2 = 0.1998	818.7	7.492
308.15 K, x2 = 0.3007	818.3	7.211
308.15 K, x2 = 0.4001	817.8	6.961
308.15 K, x2 = 0.4996	817.4	6.672
308.15 K, x2 = 0.5988	816.9	6.389
308.15 K, x2 = 0.6998	816.5	6.143
308.15 K, x2 = 0.8001	815.9	5.851
308.15 K, x2 = 0.9	815.5	5.653
313.15 K, x2 = 0	816.3	6.831
313.15 K, x2 = 0.0995	815.6	6.649
313.15 K, x2 = 0.1998	815.2	6.408
313.15 K, x2 = 0.3007	814.8	6.189
313.15 K, x2 = 0.4001	814.4	5.979
313.15 K, x2 = 0.4996	813.9	5.711
313.15 K, x2 = 0.5988	813.5	5.513
313.15 K, x2 = 0.6998	813	5.287
313.15 K, x2 = 0.8001	812.4	5.057
313.15 K, x2 = 0.9	812	4.784
